Measured values as given in patent US20060025406A1, “Modulators of hepatocyte growth factor/c- Met activity” (Angion Biomedica Corporation, priority 2004, published 2006).
pIC50: −log10 of the molar value.

Experiments:
[1] = system: HUVEC cells; test: HGF/SF-induced HUVEC cell proliferation ([3H]-thymidine incorporation); assay type: cell-based, human; conditions: HGF/SF 25 ng/ml, overnight, FIG. 1A
Experimental: Compounds of the invention were tested for HGF/SF inhibitory activity in HGF/SF-induced HUVEC cell proliferation in vitro. Briefly, HUVEC cells were seeded into 48-well plates and serum starved for 2 hours in medium containing 1% BSA, and then treated with test compounds in multiple concentrations in the presence or absence of HGF/SF (25 ng/ml, R&D Systems) overnight. This experiment also included negative (vehicle alone) and positive (HGF/SF alone) controls. Cell proliferation was measured by the incorporation of [^3H]-thymidine and counted using Beta scintillation counter.

[2] = system: A549 human lung carcinoma cells; test: A549 subcutaneous xenograft; assay type: in vivo, Balb C nude mice; conditions: 5 mg/kg i.p. daily for 3 weeks
Experimental: To investigate the effect of c-Met antagonist compound A on inhibiting the growth of A549 human lung carcinoma cells in vivo, 2×10^6 cells of A549 were injected subcutaneously into the right hind flank of male Balb C nude mice. Tumors were allowed to develop for 12 days and then animals were treated with compound A at 5 mg/kg i.p. daily for 3 weeks. Tumor size measurements were made twice weekly and volumes calculated ((length×width^2)/2 (mm^3)) Final weight of excised tumors was measured at the end of the 3-week treatment period (0.78 g for control vs. 0.05 g for compound A treated).

[3] = system: A549 human lung carcinoma cells; test: MTT assay, cell viability; assay type: cell-based; conditions: 72 hours continuous exposure
Experimental: To investigate the effect of c-Met antagonist compound A on inhibiting the growth of A549 human lung carcinoma cells in vitro, an MTT assay was carried out to determine cell viability. Cells were plated in 96-well plates at 5000 cells/well in complete medium, in the absence of drug. After 24 hours to allow for cell attachment, cells were incubated for 72 hours with the tested compounds (5 different concentrations) or vehicle. Cells were then exposed to MTT for 4 hours, and absorbance was measured at a wavelength of […].

Compound: CC(C)=CC1C(CNc2nc(Nc3ccccc3C(C)C)c3ccccc3n2)C1(C)C (centres unmarked) [B]
- inhibition of HGF/SF stimulation of endothelial cell proliferation [1]: inhibited HGF/SF stimulation of endothelial cell proliferation

Compound: OCc1ccccc1Sc1ccccc1CNc1nc(NC2CCCC2)c2ccccc2n1 [compound A]
- inhibition of HGF/SF stimulation of endothelial cell proliferation [1]: inhibited HGF/SF stimulation of endothelial cell proliferation
- tumor volume and weight [2]: significantly reduced tumor volume and weight
- final weight of excised tumors ([2]; control 0.78 g): 0.05 g
- pIC50 [3]: 5.54
